pEC50: −log10 of the molar value.
Target: hTREM2 (Homo sapiens, UniProt Q9NZC2)
Assay: Phospho-Syk AlphaScreen/AlphaLISA assay in TREM2 and DAP12 overexpressing HEK293 cells (Example A1)
Assay type: cell-based
Parameters: expressed in transfected cells
Settings: HEK293 cells; for pEC50: read-out: hTREM2 EC50
Experimental: Pharmacological measurements of TREM2 signaling through DAP12 were made with TREM2 and DAP12 overexpressing HEK293 cells stable cell lines that had been single-cell cloned (“TREM2/DAP12-HEK”). The readout of the TREM2 signaling utilized Perkin Elmer AlphaScreen/AlphaLISA technology monitoring the phosphorylation levels of the Syk kinase. TREM2/DAP12-HEK cell lines were cultured in DMEM-F12 (Corning 10-092-CM) supplemented with 1× Penicillin/Streptomycin (Corning 30-002-CI), 1× GlutaMAX (Gibco 35050-061), and 10% Fetal Bovine Serum (Life Technologies 10099) referred to as “HEK Culture Medium”. Suspensions of TREM2/DAP12-HEK cells were prepared in HEK Culture Medium and dispensed into 384-well poly-D-lysine coated microplates (Corning 354661) at a density of 20,000 cells/well using a Multidrop Combi peristaltic microplate dispenser (Thermo), 25 uL volume of cell suspension/well. Plates containing cells were then incubated for 20 hours in a humidified cell culture incubator at 37° C. with 5% CO2 (Thermo). […] Assay Buffer contained diluted test articles (in 1% final DMSO concentration for compounds) or 100 nM anti-human/mouse TREM2 antibody (R&D Systems MAB17291) as a positive control, 100 nM or rat IgG2B isotype Ab as a negative control (R&D Systems MAB0061). Incubated the plates with test articles and controls for 45 minutes at room temperature and then aspirated/removed the medium from each well of the plates. Used a Multidrop Combi peristaltic liquid handler (Thermo) to dispense 15 uL/well of “Cell Lysis Immunoassay Buffer”. The Cell Lysis Immunoassay Buffer contained M-PER Mammalian Protein Extraction Reagent (Pierce/ThermoFisher 78505), 1× Halt Phosphatase Inhibitor Cocktail (ThermoFisher #78427), 0.1875 nM anti-phospho-Syk ([…]/526) ([…]) rabbit mAb (Cell Signaling Technologies catalog #2710), and 1.5 nM biotinylated Mouse anti-human Syk (4D10) antibody (BD Biosciences, catalog #624008). Incubated plates for 1 hour at room temperature after the addition of the Cell Lysis Immunoassay Buffer. Used the Multidrop Combi liquid handler to dispense 15 μL of AlphaScreen Acceptor Bead Solution containing 7.5 μg/mL anti-rabbit IgG (Fc specific) AlphaLISA Acceptor Beads (Perkin Elmer A[…]) in 1× Immunoassay buffer (Perkin Elmer A[…]) to each well of the microplates. Incubated plates for 2 hours at room temperature. Following the incubation with the AlphaLISA Acceptor Bead Solution, used a Multidrop Combi liquid handler (Thermo) to dispense 15 μL of AlphaScreen Donor Bead Solution containing 30 μg/mL of AlphaScreen Streptavidin Donor beads (Perkin Elmer 6760002B) in 1× Immunoassay buffer (Perkin Elmer A[…]) to each well of the microplates. Incubated microplates for 2 hours protected from light sources as the AlphaScreen reagents are light sensitive. Once the final incubation was completed, acquired AlphaScreen signal from the donor and acceptor beads using an Envision high throughput multi-modal microplate reader (Perkin Elmer) calibrated to the plate type with the AlphaScreen mirror and filter-set in 384-well mode, 680 nanometer excitation wavelength. The total measurement time per well was 550 milliseconds with a 180 millisecond excitation time. After reading the AlphaScreen signal for each well of the microplates, on a plate-by-plate basis, each raw test article well value (x) was normalized to a Percent of Control (“POC”) value using the following formula: […] Each plate contained 12 of each type of control wells that were used to generate the mean values. For concentration response curve analysis with test articles tested at various concentrations, the % of activation values were analyzed with 4 Parameter Logistic or Sigmoidal Dose-Response Models using GeneData Screener (GeneData, AG) or GraphPad Prism 7 (Graphpad Software, Inc.). […] This assay may be used to test any of the compounds described herein to assess and characterize a compound's ability to act as an agonist of TREM2.

Sequence of hTREM2 (Q9NZC2 19-230): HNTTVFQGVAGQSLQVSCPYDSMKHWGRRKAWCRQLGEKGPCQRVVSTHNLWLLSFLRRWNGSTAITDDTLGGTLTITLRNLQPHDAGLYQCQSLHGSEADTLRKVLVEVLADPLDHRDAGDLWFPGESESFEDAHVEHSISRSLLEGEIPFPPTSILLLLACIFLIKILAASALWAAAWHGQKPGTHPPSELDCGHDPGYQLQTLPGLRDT
Sequence of hTREM2 (O43914 22-113 partner): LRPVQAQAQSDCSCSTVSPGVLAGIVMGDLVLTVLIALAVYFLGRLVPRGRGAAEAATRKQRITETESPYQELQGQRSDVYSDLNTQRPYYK

Structure (SMILES)	Emax	pEC50
Cc1nc2cc(N3C[C@@H](C4CC4)O[C@@H](C)C3)nc(-c3ccc(Cl)cc3F)c2c(=O)n1C (single isomer, unassigned) [Example 37]	++++ (Emax>300)	6.30 to 7.30
Cc1nc2cc(N3CCO[C@@H]([C@H]4CCO4)C3)nc(-c3ccc(Cl)cc3F)c2c(=O)n1C (single isomer, unassigned) [Example 38]	+++ (Emax>200 and ≤300)	5.52 to 6.30
Cc1nc2cc(N3CCO[C@@H]([C@@H]4CCO4)C3)nc(-c3ccc(Cl)cc3F)c2c(=O)n1C (single isomer, unassigned) [Example 39]	+++ (Emax>200 and ≤300)	5.52 to 6.30
Cc1nc2cc(N3CCO[C@H]([C@@H]4CCO4)C3)nc(-c3ccc(Cl)cc3F)c2c(=O)n1C (single isomer, unassigned) [Example 40]	+++ (Emax>200 and ≤300)	5.52 to 6.30
Cc1nc2cc(N3CCO[C@H]([C@H]4CCO4)C3)nc(-c3ccc(Cl)cc3F)c2c(=O)n1C (single isomer, unassigned) [Example 41]	+++ (Emax>200 and ≤300)	5.52 to 6.30
Cc1nc2cc(N3CCO[C@@H]([C@H]4CCOC4)C3)nc(-c3ccc(Cl)cc3F)c2c(=O)n1C (single isomer, unassigned) [Example 42]	++++ (Emax>300)	6.30 to 7.30
Cc1nc2cc(N3CCO[C@H]([C@H]4CCOC4)C3)nc(-c3ccc(Cl)cc3F)c2c(=O)n1C (single isomer, unassigned) [Example 43]	+++ (Emax>200 and ≤300)	6.30 to 7.30
Cc1nc2cc(N3CCO[C@@H]([C@@H]4CCOC4)C3)nc(-c3ccc(Cl)cc3F)c2c(=O)n1C (single isomer, unassigned) [Example 44]	+++ (Emax>200 and ≤300)	6.30 to 7.30
Cc1nc2cc(N3CCO[C@H]([C@@H]4CCOC4)C3)nc(-c3ccc(Cl)cc3F)c2c(=O)n1C (single isomer, unassigned) [Example 45]		5.52 to 6.30
Cc1nc2cc(N3CCO[C@@H](c4cccnc4)C3)nc(-c3ccc(Cl)cc3F)c2c(=O)n1C (single isomer, unassigned) [Example 46]	++++ (Emax>300)	6.30 to 7.30
Cc1nc2cc(N3CCO[C@H](c4cccnc4)C3)nc(-c3ccc(Cl)cc3F)c2c(=O)n1C (single isomer, unassigned) [Example 47]	++++ (Emax>300)	4.00 to 5.52
Cc1nc2cc(N3CCO[C@H](c4ccncc4)C3)nc(-c3ccc(Cl)cc3F)c2c(=O)n1C (single isomer, unassigned) [Example 48]	+++ (Emax>200 and ≤300)	5.52 to 6.30
Cc1nc2cc(N3CCO[C@@H](c4ccncc4)C3)nc(-c3ccc(Cl)cc3F)c2c(=O)n1C (single isomer, unassigned) [Example 49]	++++ (Emax>300)	> 7.30
Cc1nc2cc(N3CCO[C@H](c4ccsc4)C3)nc(-c3ccc(Cl)cc3F)c2c(=O)n1C (single isomer, unassigned) [Example 54]	++++ (Emax>300)	6.30 to 7.30
Cc1nc2cc(N3CCO[C@@H](c4ccsc4)C3)nc(-c3ccc(Cl)cc3F)c2c(=O)n1C (single isomer, unassigned) [Example 55]	++++ (Emax>300)	5.52 to 6.30
Cc1nc([C@H]2CN(c3cc4nc(C)n(C)c(=O)c4c(-c4ccc(Cl)cc4F)n3)CCO2)no1 (single isomer, unassigned) [Example 56]	+++ (Emax>200 and ≤300)	4.00 to 5.52
Cc1nc([C@@H]2CN(c3cc4nc(C)n(C)c(=O)c4c(-c4ccc(Cl)cc4F)n3)CCO2)no1 (single isomer, unassigned) [Example 57]	+++ (Emax>200 and ≤300)	5.52 to 6.30
Cc1nnc([C@@H]2CN(c3cc4nc(C)n(C)c(=O)c4c(-c4ccc(Cl)cc4F)n3)CCO2)o1 (single isomer, unassigned) [Example 58]	+++ (Emax>200 and ≤300)	5.52 to 6.30
Cc1nnc([C@H]2CN(c3cc4nc(C)n(C)c(=O)c4c(-c4ccc(Cl)cc4F)n3)CCO2)o1 (single isomer, unassigned) [Example 59]	+++ (Emax>200 and ≤300)	6.30 to 7.30
Cc1ncc([C@@H]2CN(c3cc4nc(C)n(C)c(=O)c4c(-c4ccc(Cl)cc4F)n3)CCO2)cn1 (single isomer, unassigned) [Example 64]	++++ (Emax>300)	6.30 to 7.30
Cc1ncc([C@H]2CN(c3cc4nc(C)n(C)c(=O)c4c(-c4ccc(Cl)cc4F)n3)CCO2)cn1 (single isomer, unassigned) [Example 65]	++ (Emax>100 and ≤200)	4.00 to 5.52

The remaining lines, values ahead:

Emax	pEC50	Structure (SMILES)
+++ (Emax>200 and ≤300)	6.30 to 7.30	Cc1c([C@@H]2CN(c3cc4nc(C)n(C)c(=O)c4c(-c4ccc(Cl)cc4F)n3)CCO2)cnn1C (single isomer, unassigned) [Example 66]
++ (Emax>100 and ≤200)	4.00 to 5.52	Cc1c([C@H]2CN(c3cc4nc(C)n(C)c(=O)c4c(-c4ccc(Cl)cc4F)n3)CCO2)cnn1C (single isomer, unassigned) [Example 67]
++++ (Emax>300)	6.30 to 7.30	Cc1nc2cc(N3C[C@H](C)O[C@@H](c4ccsc4)C3)nc(-c3ccc(Cl)cc3F)c2c(=O)n1C (single isomer, unassigned) [Example 71]
++++ (Emax>300)	5.52 to 6.30	Cc1nc2cc(N3C[C@@H](c4ccsc4)O[C@@H](C)C3)nc(-c3ccc(Cl)cc3F)c2c(=O)n1C (single isomer, unassigned) [Example 72]
+++ (Emax>200 and ≤300)	4.00 to 5.52	Cc1nc2cc(N3C[C@@H](C)O[C@@H](c4ccsc4)C3)nc(-c3ccc(Cl)cc3F)c2c(=O)n1C (single isomer, unassigned) [Example 73]
+ (Emax>45 and ≤100)	5.52 to 6.30	Cc1nc2cc(N3C[C@@H](C)O[C@H](c4ccsc4)C3)nc(-c3ccc(Cl)cc3F)c2c(=O)n1C (single isomer, unassigned) [Example 74]
++++ (Emax>300)	6.30 to 7.30	Cc1cc([C@@H]2CN(c3cc4nc(C)n(C)c(=O)c4c(-c4ccc(Cl)cc4F)n3)CCO2)cc(C)n1 (single isomer, unassigned) [Example 76]
++++ (Emax>300)	> 7.30	Cc1cc([C@H]2CN(c3cc4nc(C)n(C)c(=O)c4c(-c4ccc(Cl)cc4F)n3)CCO2)cc(C)n1 (single isomer, unassigned) [Example 77]
++++ (Emax>300)	6.30 to 7.30	COc1ccc([C@H]2CN(c3cc4nc(C)n(C)c(=O)c4c(-c4ccc(Cl)cc4F)n3)CCO2)cc1 (single isomer, unassigned) [Example 78]
+++ (Emax>200 and ≤300)	5.52 to 6.30	COc1ccc([C@@H]2CN(c3cc4nc(C)n(C)c(=O)c4c(-c4ccc(Cl)cc4F)n3)CCO2)cc1 (single isomer, unassigned) [Example 79]
++++ (Emax>300)	6.30 to 7.30	COc1cccc([C@H]2CN(c3cc4nc(C)n(C)c(=O)c4c(-c4ccc(Cl)cc4F)n3)CCO2)c1 (single isomer, unassigned) [Example 80]
+++ (Emax>200 and ≤300)	4.00 to 5.52	COc1cccc([C@@H]2CN(c3cc4nc(C)n(C)c(=O)c4c(-c4ccc(Cl)cc4F)n3)CCO2)c1 (single isomer, unassigned) [Example 81]
++++ (Emax>300)	> 7.30	COc1cc([C@H]2CN(c3cc4nc(C)n(C)c(=O)c4c(-c4ccc(Cl)cc4F)n3)CCO2)ccn1 (single isomer, unassigned) [Example 82]

— patent publication US20250388574A1, “HETEROCYCLIC COMPOUNDS AS TRIGGERING RECEPTOR EXPRESSED ON MYELOID CELLS 2 AGONISTS AND METHODS OF USE” (AMGEN INC., priority 2020, published 2025)
